Assay results reported in patent US20240124491A1, “METHODS AND COMPOUNDS FOR TREATING FRIEDREICH'S ATAXIA” (Design Therapeutics, Inc., priority 2021, published 2024).

The compounds below were run on human FXN (assay: EC50 assay: FXN mRNA expression by qRT-PCR in GM15850 cells after 48 hrs compound treatment). Details: 48 hrs incubation, hFXN expression normalized to hGAPDH (qRT-PCR), read-out: EC50 WT (nM, 48 hr).
Type: cell-based
How it was run: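 FXN transcript, normalized to GAPDH by TaqMan qRT-PCR, read out after 48 hrs of compound on GM15850 cells plated at 150,000 per well. Dosing used five 3-fold steps from 150 nM final, vehicle 0.01% DMSO.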
In the case of `C=C(C)c1ccc(Oc2c(C)cc(F)cc2C)c(-c2cn(C)c(=O)c3[nH]c(C(=O)Nc4ccc(OCCOCCOCCOCCOCCOCCOCCOCCOCCNC(=O)CCNC(=O)c5nc(NC(=O)CCNC(=O)c6cc(NC(=O)c7nc(NC(=O)CCNC(=O)c8cc(NC(=O)c9nccn9C)cn8C)cn7C)cn6C)cn5C)cc4)cc23)c1` [Compound 197, N-(5-{[2-({2-[(2-{[26-(4-{14-[2-(4-fluoro-2,6-dimethylphenoxy)-5-(prop-1-en-2-yl)phenyl]-6-methyl-7-oxo-1H-pyrrolo[2,3-c]pyridine-2-amido}phenoxy)-3,6,9,12,15,18,21,24-octaoxahexacosan-1-yl]carbamoyl]ethyl)carbamoyl]-1-methylimidazol-4-yl]carbamoyl)ethyl]carbamoyl]-1-methylpyrrol-3-yl)-1-methyl-4-(3-{[1-methyl-4-(1-methylimidazole-2-amido)pyrrol-2-yl]formamido]propanamido)imidazole-2-carboxamide], the EC50 is reported as 100 to 500 nM.

Same assay, conditions: Homo sapiens, 48 hrs incubation, hFXN expression normalized to hGAPDH (qRT-PCR), read-out: EC50 WT (nM, 48 hr)
`Cc1cc(F)cc(C)c1Oc1ccc(C(C)(C)O)cc1-c1cn(C)c(=O)c2[nH]c(C(=O)N3CCC(CN4CCN(CCOCCOCCOCCOCCOCCOCCNC(=O)CCNC(=O)c5nc(NC(=O)CCNC(=O)c6cc(NC(=O)c7nc(NC(=O)CCNC(=O)c8cc(NC(=O)c9nccn9C)cn8C)cn7C)cn6C)cn5C)CC4)CC3)cc12` [Compound 168] gave an EC50 of 100 to 500 nM. Compound `Cc1cc(F)cc(C)c1Oc1ccc(C(C)(C)O)cc1-c1cn(C)c(=O)c2[nH]c(C(=O)N3CCN(C4CCN(CCOCCOCCOCCOCCC(=O)NCCCN(CCCNC(=O)CCNC(=O)c5nc(NC(=O)CCNC(=O)c6cc(NC(=O)c7nc(NC(=O)CCNC(=O)c8cc(NC(=O)c9nccn9C)cn8C)cn7C)cn6C)cn5C)CC(F)(F)F)CC4)CC3)cc12` [Compound 169] has an EC50 of 100 to 500 nM. For `Cc1cc(F)cc(C)c1Oc1ccc(C(C)(C)O)cc1-c1cn(C)c(=O)c2[nH]c(C(=O)N3CCC(N4CCN(CCOCCOCCOCCOCCC(=O)NCCCN(CCCNC(=O)CCNC(=O)c5nc(NC(=O)CCNC(=O)c6cc(NC(=O)c7nc(NC(=O)CCNC(=O)c8cc(NC(=O)c9nccn9C)cn8C)cn7C)cn6C)cn5C)CC(F)(F)F)CC4)CC3)cc12` [Compound 170], the EC50 was > 500 nM. `Cc1cc(F)cc(C)c1Oc1ccc(C(C)(C)O)cc1-c1cn(C)c(=O)c2[nH]c(C(=O)NC3CCN(CC#CC#CC4CCN(CCOCCOCCOCCOCCOCCOCCOCCNC(=O)CCNC(=O)c5nc(NC(=O)CCNC(=O)c6cc(NC(=O)c7nc(NC(=O)CCNC(=O)c8cc(NC(=O)c9nccn9C)cn8C)cn7C)cn6C)cn5C)CC4)CC3)cc12` [Compound 175] was tested, and the EC50 was < 100 nM. With `Cc1cc(F)cc(C)c1Oc1ccc(C(C)(C)O)cc1-c1cn(C)c(=O)c2[nH]c(C(=O)NC3CCN(CC#CC#CC4CCN(CCOCCOCCNC(=O)CCNC(=O)c5nc(NC(=O)CCNC(=O)c6cc(NC(=O)c7nc(NC(=O)CCNC(=O)c8cc(NC(=O)c9nccn9C)cn8C)cn7C)cn6C)cn5C)CC4)CC3)cc12` [Compound 176] the EC50 was < 100 nM. `Cc1cc(F)cc(C)c1Oc1ccc(C(C)(C)O)cc1-c1cn(C)c(=O)c2[nH]c(C(=O)Nc3ccc(OCCOCCOCCOCCOCCOCCOCCOCCOCCOCCNC(=O)CCNC(=O)c4nc(NC(=O)CCNC(=O)c5cc(NC(=O)c6nc(NC(=O)CCNC(=O)c7cc(NC(=O)c8nccn8C)cn7C)cn6C)cn5C)cn4C)cc3)cc12` [Compound 195] was tested, and the EC50 was < 100 nM. With `Cc1cc(F)cc(C)c1Oc1ccc(C(C)(C)O)cc1-c1cn(C)c(=O)c2[nH]c(C(=O)Nc3ccc(OCCOCCOCCOCCOCCOCCOCCOCCOCCNC(=O)CCNC(=O)c4nc(NC(=O)CCNC(=O)c5cc(NC(=O)c6nc(NC(=O)CCN)cn6C)cn5C)cn4C)cc3)cc12` [Compound 199, 4-(3-aminopropanamido)-N-(5-{[2-({2-[(2-{[26-(4-{4-[2-(4-fluoro-2,6-dimethylphenoxy)-5-(2-hydroxypropan-2-yl)phenyl]-6-methyl-7-oxo-1H-pyrrolo[2,3-c]pyridine-2-amido}phenoxy)-3,6,9,12,15,18,21,24-octaoxahexacosan-1-yl]carbamoyl}ethyl)carbamoyl]-1-methylimidazol-4-yl}carbamoyl)ethyl]carbamoyl}-1-methylpyrrol-3-yl)-1-methylimidazole-2-carboxamide] the EC50 was > 500 nM. For `Cc1sc2c(c1C)C(c1ccc(NC(=O)CCCCCCCCCCCCCCCNCCc3c[nH]c4ccccc34)cc1)=N[C@@H](CC(=O)Nc1ccc(OCCOCCOCCOCCOCCOCCOCCOCCOCCNC(=O)CCNC(=O)c3nc(NC(=O)CCNC(=O)c4cc(NC(=O)c5nc(NC(=O)CCNC(=O)c6cc(NC(=O)c7nccn7C)cn6C)cn5C)cn4C)cn3C)cc1)c1nnc(C)n1-2` [Compound 200], the EC50 was > 500 nM. `CCCCCCCC(=O)N(CC#CC#Cc1ccc(NC(=O)C[C@@H]2N=C(c3ccc(Cl)cc3)c3c(sc(C)c3C)-n3c(C)nnc32)cc1)CCOCCOCCOCCOCCOCCNC(=O)CCNC(=O)c1nc(NC(=O)CCNC(=O)c2cc(NC(=O)c3nc(NC(=O)CCNC(=O)c4cc(NC(=O)c5nccn5C)cn4C)cn3C)cn2C)cn1C` [Compound 201] was tested, and the EC50 was > 500 nM. Work on `CCCCCCCC(=O)Nc1ccc(C2=N[C@@H](CC(=O)Nc3ccc(OCCOCCOCCOCCOCCOCCOCCOCCOCCNC(=O)CCNC(=O)c4nc(NC(=O)CCNC(=O)c5cc(NC(=O)c6nc(NC(=O)CCNC(=O)c7cc(NC(=O)c8nccn8C)cn7C)cn6C)cn5C)cn4C)cc3)c3nnc(C)n3-c3sc(C)c(C)c32)cc1` [Compound 203] yielded an EC50 of 100 to 500 nM. With `CCCCCCCCCCCCCCCC(=O)Nc1ccc(C2=N[C@@H](CC(=O)Nc3ccc(OCCOCCOCCOCCOCCOCCOCCOCCOCCNC(=O)CCNC(=O)c4nc(NC(=O)CCNC(=O)c5cc(NC(=O)c6nc(NC(=O)CCNC(=O)c7cc(NC(=O)c8nccn8C)cn7C)cn6C)cn5C)cn4C)cc3)c3nnc(C)n3-c3sc(C)c(C)c32)cc1` [Compound 204] the EC50 was > 500 nM. In the case of `Cc1cc(F)cc(C)c1Oc1ccc(C(C)(C)O)cc1-c1cn(C)c(=O)c2[nH]c(C(=O)Nc3ccc(OCCOCCOCCOCCOCCOCCOCCOCCNC(=O)CCNC(=O)c4nc(NC(=O)CCNC(=O)c5cc(NC(=O)c6nc(NC(=O)CCNC(=O)c7cc(NC(=O)c8nccn8C)cn7C)cn6C)cn5C)cn4C)cc3)cc12` [Compound 205, N-(5-{[2-({2-[(2-{[23-(4-{4-[2-(4-fluoro-2,6-dimethylphenoxy)-5-(2-hydroxypropan-2-yl)phenyl]-6-methyl-7-oxo-1H-pyrrolo[2,3-c]pyridine-2-amido}phenoxy)-3,6,9,12,15,18,21-heptaoxatricosan-1-yl]carbamoyl}ethyl)carbamoyl]-1-methylimidazol-4-yl}carbamoyl)ethyl]carbamoyl}-1-methylpyrrol-3-yl)-1-methyl-4-(3-{[1-methyl-4-(1-methylimidazole-2-amido)pyrrol-2-yl]formamido}propanamido)imidazole-2-carboxamide], the EC50 is reported as < 100 nM. In the case of `Cn1cc(NC(=O)c2nc(NC(=O)CCNC(=O)c3cc(NC(=O)c4nccn4C)cn3C)cn2C)cc1C(=O)NCCC(=O)Nc1cn(C)c(C(=O)NCCC(=O)NCCOCCOCCOCCOCCOCCOCCOCCOCCOc2ccc(NC(=O)c3cc4c(-c5cc(S(C)(=O)=O)ccc5Oc5ccc(F)cc5F)cn(C)c(=O)c4[nH]3)cc2)n1` [Compound 207, N-(5-{[2-({2-[(2-{[26-(4-{14-[2-(2,4-difluorophenoxy)-5-methanesulfonylphenyl]-6-methyl-7-oxo-1H-pyrrolo[2,3-c]pyridine-2-amido}phenoxy)-3,6,9,12,15,18,21,24-octaoxahexacosan-1-yl]carbamoyl]ethyl)carbamoyl]-1-methylimidazol-4-yl}carbamoyl)ethyl]carbamoyl}-1-methylpyrrol-3-yl)-1-methyl-4-(3-{[1-methyl-4-(1-methylimidazole-2-amido)pyrrol-2-yl]formamido]propanamido)imidazole-2-carboxamide], the EC50 is reported as < 100 nM. For `COCCOCCOCCOCCOCCOCCOc1cc(NC(=O)C[C@@H]2N=C(c3ccc(Cl)cc3)c3c(sc(C)c3C)-n3c(C)nnc32)ccc1OCCOCCOCCOCCOCCOCCOCCOCCOCCNC(=O)CCNC(=O)c1nc(NC(=O)CCNC(=O)c2cc(NC(=O)c3nc(NC(=O)CCNC(=O)c4cc(NC(=O)c5nccn5C)cn4C)cn3C)cn2C)cn1C` [Compound 211], the EC50 was 100 to 500 nM. For `Cc1cc(F)cc(C)c1Oc1ccc(C(C)(C)O)cc1-c1cn(C)c(=O)c2[nH]c(C(=O)Nc3ccc(OCCOCCOCCOCCOCCOCCOCCOCCOCCNC(=O)c4cc(NC(=O)c5nc(NC(=O)c6cc(NC(=O)c7ccc8nc(-c9nccn9C)[nH]c8c7)cn6C)cn5C)cn4C)cc3)cc12` [Compound 215, N-[5-({2-[(5-{[26-(4-{4-[2-(4-fluoro-2,6-dimethylphenoxy)-5-(2-hydroxypropan-2-yl)phenyl]-6-methyl-7-oxo-1H-pyrrolo[2,3-c]pyridine-2-amido}phenoxy)-3,6,9,12,15,18,21,24-octaoxahexacosan-1-yl]carbamoyl}-1-methylpyrrol-3-yl)carbamoyl]-1-methylimidazol-4-yl]carbamoyl)-1-methylpyrrol-3-yl]-2-(1-methylimidazol-2-yl)-3H-1,3-benzodiazole-5-carboxamide], the EC50 was > 500 nM. For `Cc1cc(F)cc(C)c1Oc1ccc(C(C)(C)O)cc1-c1cn(C)c(=O)c2[nH]c(C(=O)Nc3ccc(OCCOCCOCCOCCOCCOCCOCCOCCn4cc(CNC(=O)c5nc(NC(=O)CCNC(=O)c6cc(NC(=O)c7nc(NC(=O)CCNC(=O)c8cc(NC(=O)c9nccn9C)cn8C)cn7C)cn6C)cn5C)nn4)cc3)cc12` [Compound 217, N-({1-[23-(4-{4-[2-(4-fluoro-2,6-dimethylphenoxy)-5-(2-hydroxypropan-2-yl)phenyl]-6-methyl-7-oxo-1H-pyrrolo[2,3-c]pyridine-2-amido}phenoxy)-3,6,9,12,15,18,21-heptaoxatricosan-1-yl]-1,2,3-triazol-4-yl}methyl)-1-methyl-4-[3-({1-methyl-4-[1-methyl-4-(3-{[1-methyl-4-(1-methylimidazole-2-amido)pyrrol-2-yl]formamido}propanamido)imidazole-2-amido]pyrrol-2-yl}formamido)propanamido]imidazole-2-carboxamide], the EC50 was < 100 nM.
